Results taken from US20150113681A1, “COMPOSITION AND METHOD FOR ENHANCING PLANT TRANSFORMATION” (SYNGENTA PARTICIPATIONS AG, priority 2013, published 2015).

Tests used:
sugarcane callus = assay: Sugarcane transformation, glyphosate/EPSPS selection with differing sucrose levels in selection media; type: cell-based, sugarcane (Saccharum)
Method: The method of the present invention includes embryogenic responses initiated and/or cultures established from sugar cane young leave rolls by culturing on callus induction medium. Established embryogenic cultures were weighted, and then inoculated and co-cultivated with the Agrobacterium tumefaciens strain EHA101 (Agrobacterium) containing the desired vector construction. Agrobacterium was cultured from glycerol stocks on solid YPC medium (100 mg/L spectinomycin and any other appropriate antibiotic) for about two days at 28° C. Agrobacterium is re-suspended in liquid MS-D2 medium. The Agrobacterium culture was diluted to an OD600 of 0.3-0.4 and acetosyringone is added to a final concentration of 400 uM. Acetosyringone was added before mixing the solution with the sugar cane cultures to induce Agrobacterium for DNA transfer to the plant cells. For inoculation, the cultures were immersed in the bacterial suspension. The liquid bacterial suspension is removed and the inoculated cultures were placed on empty plate for co-cultivation and incubated at 22° C. for two days. The cultures were then transferred to callus induction medium with Ticarcillin (400 mg/liter) to inhibit the growth of Agrobacterium and cultured for 4-10 days at 28° C. in dark. Referring to Table 3 below, for constructs utilizing the EPSPS selectable marker gene, cultures are transferred to selection S1 medium containing glyphosate as the selection agent and 400 mg/liter Ticarcillin and cultured for 3-4 weeks in the dark. For different treatments, the concentration of sucrose varied from 0 to 30 g/l and glyphosate level varied from 0.1 to 5 mM. […] Resistant colonies were then transferred to regeneration medium, and grown in the dark for 7 days, and then moved to the light growth room for 14 days. Regenerated shoots were transferred Rooting media for 3-4 weeks and then moved to the greenhouse when they are large enough and have adequate roots. Plants are transplanted to soil in the greenhouse (To generation), and grown to maturity.

maize immature embryos [1] = assay: Maize transformation, glyphosate/EPSPS selection with differing sucrose levels in selection media; type: cell-based, Zea mays (corn); conditions: glyphosate selection
Method: (§1) Transformation of immature maize embryos is performed essentially as described in Negrotto et al., (2000) Plant Cell Reports 19: 798-803. Various media constituents described therein can be substituted. For example, the selectable marker gene and the selection agent can be modified, as in the examples below.
(§2) The genes used for transformation are cloned into a vector suitable for maize transformation as described above. Vectors used contain the either the PAT gene or the EPSPS gene as a selectable marker. PAT confers resistance to bialaphose, and EPSPS confers resistance to glyphosate.
(§3) Preparation of Agrobacterium tumefaciens: Agrobacterium strain LBA4404 (pSB1) containing the plant transformation plasmid is grown on YPC (yeast extract (5 g/L), peptone (10 g/L), NaCl (5 g/L), CaCl2.2H2O (1 g/L), 15 g/l agar, pH 6.8) solid medium for 2 to 4 days at 28° C. Approximately 0.8×10^9 Agrobacteria are suspended in inoculation medium supplemented with 100 μM acetosyringone (As) Bacteria are pre-induced in this medium for about 20 to 240 minutes.
(§4) Inoculation: Immature embryos from are excised from 8-12 day old ears after pollination. The isolated mixture of endosperms with immature embryos are suspended in the inoculation medium and poured through a 1500 um sieve after shaking. The immature embryos are captured on a 380 um sieve after pouring the suspension through. Immature embryos are gently removed from the sieve and suspended in Agrobacterium suspension on co-cultivation medium using a sterile scalpel blade after 5 min 45° C. heat shock. The immature embryo suspension is spread evenly on the co-cultivation medium and the excess Agrobacterium suspension is removed using a sterile transfer pipette and filter papers. The immature embryos are then spaced and flipped with round scutellum side up and then cultured in the dark for two to three days. Subsequently, between 20 and 45 embryos per petri plate are transferred to the medium AW5Dicamba100Ti and cultured in the dark for 28° C. for 10-14 days for callus induction.
Following co-cultivation and callus induction, the transformed calli are step-wisely selected on MS medium or MS medium contained differing concentrations of sucrose (5, 10 and 20, g/l) and glyphosate (2 mg/l) as indicated in Table 2.
In one embodiment of the present invention, in an incubation selection period referred to in Table 2 as S1, 10-20 calli from callus induction medium were transferred onto selection medium S1 and cultured for approximately 2 weeks at 28° C. in the dark. Each callus is originated from an immature embryo.
For the selection period referred to as S2, about 9 to 10 calli cultured in selection step S1 were transferred to each plate containing selection medium S2 and then cultured for approximately 2 weeks at 28° C. in dark.
For the selection period referred to as S3, about 9 to 10 calli cultured in selection period S2 were transferred to selection medium of selection period S3 containing 20 g/l sucrose and 2 mM glyphosate. and cultured for approximately 2 weeks at 28° C. in the dark.
In another embodiment and referring to Table 2, about 10 to 20 calli per plate from callus induction medium were transferred onto selection medium of selection period S1. and cultured for approximately 2-3 weeks at 28° C. in the dark. Each callus was originated from an immature embryo. About 9 to 10 calli per plates were transferred to selection medium of selection period S2. and cultured for approximately 2 weeks at 28° C. in the dark.
Regeneration of Transformed Plants: Glyphosate-resistant embryogenic callus were selected under dissecting microscope and 4 embryogenic calli per plate were transferred to regeneration medium. and cultured for approximately 2 weeks at 28° C. in the dark. The cultures were subsequently transferred to a light room for 14 days at 25° C. with a 16 hour photoperiod. […]

maize immature embryos [2] = assay: Maize transformation, bialaphos/PAT selection with differing sucrose levels in selection media; type: cell-based, Zea mays (corn)
Method: as §1, §2, §3, §4
Following co-cultivation and callus induction, the transformed calli are step-wise selected on MS medium or MS medium containing alternating concentrations of sucrose (5, 10 and 20, g/l) and bialaphos (5 and 7.5 mg/l) as indicated in Table 1. The controls comprise calli selected on MS medium supplemented with 20 g/l sucrose and 5 or 7.5 mg/l bialaphos for 4 to 6 weeks at 2 to 3 week intervals.
In a first selection period referred to in Table 1 as 51, about 10-20 calli are transferred from callus induction medium comprising 30 g/L sucrose onto 51 medium MS medium contained 5 g/l sucrose and 7.5 mg/l bialaphos and cultured for approximately 2 weeks at 28° C. in the dark. Each callus was originated from an immature embryo. For the second selection period, referred to in Table 1 as S2, about 9 to 10 calli of 51 are transferred to each plate containing S2 medium comprising 10 g/l sucrose and 7.5 mg/l bialaphose and then cultured for approximately 2 weeks at 28° C. in dark. For the third selection period referred to as S3, 9 to 10 calli are transferred from each S2 plate to S3 medium contained 20 g/l sucrose and 5 mg/l bialaphos and cultured for approximately 2 weeks at 28° C. in dark.
In another embodiment of the invention, in the first selection period S1 about 10 to 20 calli from each plate were transferred from callus induction medium comprising 30 g/L sucrose onto S1 medium containing 10 g/L of sucrose and 7.5 mg/l bialaphos and cultured for approximately 3 weeks at 28° C. in the dark. Each callus was originated from an immature embryo. 9 to 10 calli per plate were transferred from the S1 medium to S3 medium containing 20 g/L of sucrose and cultured for 2 weeks at 28° C. in dark. […]

[3] = control, 20 g/L sucrose, bialaphos selection

Compound: OC[C@H]1O[C@@](CO)(O[C@H]2O[C@H](CO)[C@@H](O)[C@H](O)[C@H]2O)[C@@H](O)[C@@H]1O [sucrose]
- transformation frequency (sugarcane callus; altering sucrose level and adjusting glyphosate concentration in step-wise selection): > 7 % per gram fresh tissue
- recovery of transgenic plants (sugarcane callus; standard control, MS medium with 30 g/l sucrose and 3 mM glyphosate): no transgenic plants were recovered
- transformation frequency (sugarcane callus; sucrose concentration reduced to 5 g/l in selection medium): 2.4 % per gram of fresh tissues
- transformation frequency (sugarcane callus; sucrose concentration reduced to 10 and 15 g/l): improved
- regeneration frequency (maize immature embryos [1]; sucrose 5 g/L in S2 followed by 20 g/L in S3): 87.4%
- frequency of independent stable transgenic events (transformation frequency) (maize immature embryos [1]; sucrose 5 g/L in second round (S2) followed by 20 g/L in third round (S3)): 29.5%
- regeneration frequency (maize immature embryos [1]; sucrose 10 g/L in S2 followed by 20 g/L in S3): 86.4%
- frequency of independent stable transgenic events (maize immature embryos [1]; sucrose 10 g/L in second round (S2) followed by 20 g/L in third round (S3)): 18.3%
- frequency of independent stable transgenic events (maize immature embryos [1]; negative control, standard sucrose concentration 20 g/L): 4.8%
- regeneration frequency (maize immature embryos [1]; negative control, sucrose 20 g/L): 7.9%
- regeneration frequency (maize immature embryos [2]; 5 and 10 g/L sucrose in S1 bialaphos selection): more than 65%
- transformation frequency increase compared to the control (maize immature embryos [2]; 5 g/L sucrose in S1 bialaphos selection vs 20 g/L control): 3.1 fold
- transformation frequency (maize immature embryos [2]; 5 g/L sucrose in bialaphos selection media, first round of selection (S1)): 23.5%
- escape rate (maize immature embryos [2]; 5 g/L sucrose, bialaphos selection): 2.4%
- transformation frequency increase compared to the control (maize immature embryos [2]; 10 g/L sucrose in S1 bialaphos selection vs 20 g/L control): 2.2 fold
- transformation frequency (maize immature embryos [2]; 10 g/L sucrose in bialaphos selection media, first round of selection (S1)): 16.9%
- escape rate (maize immature embryos [2]; [3]): 11.8%
- regeneration frequency (maize immature embryos [2]; [3]): 37.4%
- transformation frequency (maize immature embryos [2]; [3]): 7.6%
